{"source": "patent US7491505B2", "about": "“Method for analyzing tumor aggressivity comprising measurement of polymerized actin” (Bioalliance Pharma, priority 2002, dated 2009)", "tested_on": "polymerized actin in lysate of NIH 3T3 EF cells", "test": "Measurement of polymerized actin in the steady state (STAFI) and Kobs in cellular lysate by static fluorescence polarization", "type": "biochemical, murine", "conditions": "NIH 3T3 EF lysate", "excerpt": "The result of the test is a plateau fluorescence anisotropy value (<<STAFI>>) corresponding to the quantity of polymerized actin in the steady state and an apparent constant (Kobs) for actin polymerization resulting from the progressive incorporation of marked actin monomers over time until attainment of the steady state, that is the plateau of the curve.\nBy use of the GraphPad Prism® version 3 Software (GraphPad Software, Inc., San Diego, Calif.), for biostatistics, curve fitting, and scientific graphing, the experimental data are used to generate a curve adjusted to a 1st order equation such that: Y=ΔmA max(1−e^−k·t) where\nThe technique of fluorescence polarization, also called static fluorescence anisotropy enables the obtaining of a value dependent on the size of the fluorescent molecule and the number of fluorescent molecular complexes. […] The level of this plateau, called <<STAFI>> reflects the quantity of F at the steady state, that is, the […], and the speed of reaching the plateau depends on the rapidity with which these filaments are formed. […]\nAt the time of the test, the solution of marked actin monomers is diluted to 1/3 in G solution. The apparatus used is a Beacon® 2000 Fluorescence Polarization System (Invitrogen Corporation, Carlsbad, Calif.) fluorescence polarization spectrometer. […]"}
{"smiles": "C/C1=C\\[C@H](C)C[C@H](C)OC(=O)C[C@H](c2ccc(O)cc2)NC(=O)[C@@H](Cc2c(Br)[nH]c3ccccc23)N(C)C(=O)[C@H](C)NC(=O)[C@@H](C)C1", "note": "[Jasplakinolide]", "values": [{"measurement": "delta mA max (STAFI, fluorescence anisotropy value at the plateau)", "setting": "10 μM jasplakinolide added to polymerization medium, initial value 35 mA, NIH 3T3 65 mA", "result": 66, "unit": "mA"}, {"measurement": "Kobs (apparent constant of actin polymerization)", "setting": "jasplakinolide added, NIH 3T3 EF alone 0.04, NIH 3T3 0.086", "result": 0.15}]}
